system: HSV-1; assay: HSV-1 infection of Vero 76 cells, viral DNA hybridization capture assay; assay type: cell-based; conditions: Human alphaherpesvirus 1; HSV-1 (MOI=0.001) in Vero 76 cells, 40–48 hours incubation, HSV DNA hybridization with chemiluminescence detection
Method: Vero 76 cells were maintained in MEM with Earle's salts, L-glutamine, 8% FBS (Hyclone, A-1111-L) and 100 units/mL Penicillin-100 μg/mL Streptomycin. For assay conditions, FBS was reduced to 2%. Cells are seeded into 96-well tissue culture plates at a density of 5×10^4 cells/well after being incubated for 45 min at 37° C. in the presence of HSV-1 or HSV-2 (MOI=0.001). Test compounds are added to the wells and the plates are incubated at 37° C. for 40–48 hours. Cell lysates are prepared as follows: media was removed and replaced with 150 μL/well 0.2 N NaOH with 1% Igepal CA 630 or NP-40. Plates were incubated up to 14 days at room temperature in a humidified chamber to prevent evaporation.
For the detection probe, a gel-purified, digoxigenin-labeled, […] PCR fragment of the HSV UL-15 sequence was utilized. PCR conditions included 0.5 μM primers, 180 μM dTTP, 20 μM dUTP-digoxigenin (Boehringer Mannheim 1558706), 200 μM each of dATP, dCTP, and dGTP, 1×PCR Buffer II (Perkin Elmer), 2.5 mM, MgCl2, 0.025 units/μL of AmpliTaq Gold polyerase (Perkin Elmer), and 5 ng a gel-purified HSV DNA per 100 μL Extension conditions were 10 min at 95° C., followed by 30 cycles of 95° C. for 1 min, 55° C. for 30 sec, and 72° C. for 2 min. The amplification was completed with a 10-min incubation at 72° C. Primers were selected to amplify a 728 bp probe spanning a section of the HSV1 UL15 open reading frame (nucleotides 249–977). Single-stranded transcripts were purified with Promega M13 Wizard kits. The final product was mixed 1:1 with a mixture of 6 M GuSCN, 100 mM EDTA and 200 μg/mL herring sperm DNA and stored at 4° C.
The capture DNA plasmid (HSV UL13 region in pUC) was linearized by cutting with Xba I, denatured for 15 min at 95° C. and diluted immediately into Reacti-Bind DNA Coating Solution (Pierce, 17250, diluted 1:1 with TE buffer, pH 8) at 1 ng/μL 75 μl/well were added to Corning (#3922 or 9690) white 96-well plates and incubated at room temperature for at least 4 hrs before washing twice with 300 μL/well 0.2×SSC/0.05% Tween-20 (SSC/T buffer). The plates were then incubated overnight at room temperature with 150 μL/well 0.2 N NaOH, 1% IGEPAL and 10 μg/mL herring sperm DNA.
Twenty-seven (27) μL of cell lysate was combined with 45 μL of hydridization solution (final concentration: 3M GuSCN, 50 mM EDTA, 100 μg/ml salmon sperm DNA, 5× Denhardt's solution, 0.25× APE, and 5 ng of the digoxigenin-labeled detection probe). APE is 1.5 M NH4-acetate, 0.15 M NH4H2phosphate, and 5 mM EDTA adjusted to pH 6.0. Mineral oil (50 μL) was added to prevent evaporation. The hybridization plates were incubated at 95° C. for 10 minutes to denature the DNA, then incubated at 42° C. overnight. The wells were washed 6× with 300 μL/well SSC/T buffer then incubated with 75 μL/well anti-digoxigenin-HRP-conjugated antibody (Boehringer Mannheim 1207733, 1:5000 in TE) for 30 min at room temperature. The wells were washed 6× with 300 μL/well with PBS/0.05% Tween-20 before 75 μL/well SuperSignal LBA substrate (Pierce) was added. The plates were incubated at room temperature for 30 minutes and chemiluminescence was measured in a Wallac Vietor reader.
The following results were obtained for HSV-1.

IC50 [nM] | Compound
720 | Fc1ccc(-c2nn3c(NC4CCCC4)nccc3c2-c2ccnc(NC3CCCC3)n2)cc1 [Example 1, N-Cyclopentyl-3-[2-(cyclopentylamino)pyrimidin-4-yl]-2-(4-fluorophenyl)pyrazolo[1,5-c]pyrimidin-7-amine]
5500 | Fc1ccc(-c2nn3c(NC4CCCC4)nccc3c2-c2ccnc(NC3CC3)n2)cc1 [Example 2, N-Cyclopentyl-3-[2-(cyclopropylamino)pyrimidin-4yl]-2-(4-fluorophenyl)pyrazolo[1,5-c]pyrimidin-7-amine]
3900 | Clc1cccc(-c2nn3cnccc3c2-c2ccnc(NC3CCCC3)n2)c1 [Example 3, 4-[2-(3-Chlorophenyl)pyrazolo[1,5-c]pyrimidin-3-yl]-N-cyclopentylpyrimidin-2-amine]
11300 | CSc1nccc2c(-c3ccnc(NC4CCCC4)n3)c(-c3cccc(Cl)c3)nn12 [Example 4, 4-[2-(3-Chlorophenyl)-7-(methylthio)pyrazolo[1,5-c]pyrimidin-3-yl]-N-cyclopentylpyrimidin-2-amine]
460 | Clc1cccc(-c2nn3c(NC4CCCC4)nccc3c2-c2ccnc(NC3CCCC3)n2)c1 [Example 5, 2-(3-Chlorophenyl)-N-cyclopentyl-3-[2-(cyclopentylamino)-4-pyrimidinyl]pyrazolo[1,5-c]pyrimidin-7-amine]
200 | Clc1cccc(-c2nn3c(N4CCOCC4)nccc3c2-c2ccnc(NC3CCCC3)n2)c1 [Example 6, 4-[2-(3-Chlorophenyl)-7-(4-morpholinyl)pyrazolo[1,5-c]pyrimidin-3-yl]-N-cyclopentyl-2-pyrimidinamine]
300 | COCCNc1nccc2c(-c3ccnc(NC4CCCC4)n3)c(-c3cccc(Cl)c3)nn12 [Example 7, 2-(3-Chlorophenyl)-3-[2-(cyclopentylamino)-4-pyrimidinyl]-N-(2-methoxyethyl)pyrazolo[1,5-c]pyrimidin-7-amine]
2500 | Oc1nccc2c(-c3ccnc(NC4CCCC4)n3)c(-c3cccc(Cl)c3)nn12 [Example 8, 2-(3-Chlorophenyl)-3-[2-(cyclopentylamino)-4-pyrimidinyl]pyrazolo[1,5-c]pyrimidin-7-ol]
7100 | CSc1nc(NC2CCCC2)n2nc(-c3ccccc3)c(-c3ccnc(F)c3)c2n1 [Example 9, N-Cyclopentyl-8-(2-fluoro-4-pyridinyl)-2-(methylsulfanyl)-7-phenylpyrazolo[1,5-a][1,3,5]triazin-4-amine]
120 | c1ccc(-c2nn3c(NC4CCCC4)nc(NC4CCCC4)nc3c2-c2ccnc(NC3CCCC3)c2)cc1 [Example 10, N^2,N^4-Dicyclopentyl-8-[2-(cyclopentylamino)-4-pyridinyl]-7-phenylpyrazolo[1,5-a][1,3,5]triazine-2,4-diamine]
6400 | c1ccc(-c2nn3c(NC4CCCC4)ncnc3c2-c2ccnc(NC3CCCC3)n2)cc1 [Example 11, N-Cyclopentyl-8-[2-(cyclopentylamino)-4-pyrimidinyl]-7-phenylpyrazolo[1,5-a][1,3,5]triazin-4-amine]
1000 | CCCCNc1nccc(-c2c(-c3ccc(F)cc3)nn3c(NC4CCCC4)nccc23)n1 [Example 12, 3-[2-(Butylamino)pyrimidin-4-yl]-N-cyclopentyl-2-(4-fluorophenyl)pyrazolo[1,5-c]pyrimidin-7-amine]
1500 | Fc1ccc(-c2nn3c(NC4CCCC4)nccc3c2-c2ccnc(Nc3ccccc3)n2)cc1 [Example 13, 3-(2-Anilinopyrimidin-4-yl)-N-cyclopentyl-2-(4-fluorophenyl)pyrazolo-[1,5-c]pyrimidin-7-amine]
> 40000 | Fc1ccc(-c2nn3c(NC4CCCC4)nccc3c2-c2ccnc(Nc3nc4ccccc4s3)n2)cc1 [Example 14, 3-[2-(1,3-Benzothiazol-2-ylamino)pyrimidin-4-yl]-N-cyclopentyl-2-(4-fluorophenyl)pyrazolo[1,5-c]pyrimidin-7-amine]
> 40000 | Cc1csc(Nc2nccc(-c3c(-c4ccc(F)cc4)nn4c(NC5CCCC5)nccc34)n2)n1 [Example 15, N-Cyclopentyl-2-(4-fluorophenyl)-3-{2-[(4-methyl-1,3-thiazol-2-yl)amino]pyrimidin-4-yl}pyrazolo[1,5-c]pyrimidin-7-amine]
> 40000 | Fc1ccc(-c2nn3c(NC4CCCC4)nccc3c2-c2ccnc(Nc3nc4ccccc4[nH]3)n2)cc1 [Example 16, 3-[2-(1H-Benzimidazol-2-ylamino)pyrimidin-4-yl]-N-cyclopentyl-2-(4-fluorophenyl)pyrazolo[1,5-c]pyrimidin-7-amine]
2000 | Fc1ccc(CNc2nccc(-c3c(-c4ccc(F)cc4)nn4c(NC5CCCC5)nccc34)n2)cc1 [Example 17, N-Cyclopentyl-3-{2-[(4-fluorobenzyl)amino]pyrimidin-4-yl}-2-(4-fluorophenyl)pyrazolo[1,5-c]pyrimidin-7-amine]
3500 | Fc1ccc(-c2nn3c(NC4CCCC4)nccc3c2-c2ccnc(NCCc3ccccc3)n2)cc1 [Example 18, N-Cyclopentyl-2-(4-fluorophenyl)-3-{2-[(2-phenylethyl)amino]pyrimidin-4yl}pyrazolo[1,5-c]pyrimidin-7-amine]
3000 | CC(C)(C)Nc1nccc(-c2c(-c3ccc(F)cc3)nn3c(NC4CCCC4)nccc23)n1 [Example 19, 3-[2-(tert-Butylamino)pyrimidin-4-yl]-N-cyclopentyl-2-(4-fluorophenyl)pyrazolo[1,5-c]pyrimidin-7-amine]
> 40000 | CSc1nccc2c(-c3ccnc(NC4CCCC4)n3)c(-c3ccc(F)cc3)nn12 [Example 20, N-Cyclopentyl-4-[2-(4-fluorophenyl)-7-(methylsulfanyl)pyrazolo[1,5-c]pyrimidin-3-yl]pyrimidin-2-amine]
400 | COc1ccc(-c2nn3c(NC4CCCC4)nccc3c2-c2ccnc(NC3CCCC3)n2)cc1 [Example 21, N-Cyclopentyl-3-[2-(cyclopentylamino)pyrimidin-4-yl]-2-(4-methoxyphenyl)pyrazolo[1,5-c]pyrimidin-7-amine]
4000 | Oc1ccc(-c2nn3c(NC4CCCC4)nccc3c2-c2ccnc(NC3CCCC3)n2)cc1 [Example 22, 4-{7-(Cyclopentylamino)-3-[2-(cyclopentylamino)pyrimidin-4-yl]pyrazolo[1,5-c]pyrimidin-2-yl}phenol]
500 | c1cc(-c2c(-c3ccc(OCC4CC4)cc3)nn3c(NC4CCCC4)nccc23)nc(NC2CCCC2)n1 [Example 23, N-Cyclopentyl-3-[2-(cyclopentylamino)pyrimidin-4-yl]-2-[4-(cyclopropylmethoxy)phenyl]pyrazolo[1,5-c]pyrimidin-7-amine]
1000 | COc1ccc(-c2nn3c(NC4CC4)nccc3c2-c2ccnc(NC3CCCC3)n2)cc1 [Example 24, 3-[2-(Cyclopentylamino)pyrimidin-4-yl]-N-cyclopropyl-2-(4-methoxyphenyl)pyrazolo[1,5-c]pyrimidin-7-amine]

Compound | IC50 [nM]
CCCCOc1ccc(-c2nn3c(NC4CCCC4)nccc3c2-c2ccnc(NC3CCCC3)n2)cc1 [Example 25, 2-(4-Butoxyphenyl)-N-cyclopentyl-3-[2-(cyclopentylamino)pyrimidin-4-yl]pyrazolo[1,5-c]pyrimidin-7-amine] | 600
CC(C)COc1ccc(-c2nn3c(NC4CCCC4)nccc3c2-c2ccnc(NC3CCCC3)n2)cc1 [Example 26, N-Cyclopentyl-3-[2-(cyclopentylamino)pyrimidin-4-yl]-2-(4-isobutoxyphenyl)pyrazolo[1,5-c]pyrimidin-7-amine] | 500

Reference: patent publication US7247626B2, “Pyrazolopyrimidine derivatives and pharmaceutical compositions containing them” (SmithKline Beecham Corporation, priority 2002, dated 2007)
